Test results taken from ChEMBL document CHEMBL1221370, “Steroidal saponins from fresh stems of Dracaena angustifolia” (J Nat Prod, 2010).
Values after ≈ are worked out from the molar mass of the structure shown. Each block holds one molecule with its values, some of them ahead of it. Active and inactive are the calls of the source. No cut-off for these calls is given here.

What was measured:
Format in all cases: functional, organism-based
[1] = tested on: Candida albicans; assay: Antifungal activity against Candida albicans ATCC 90028 by broth dilution method
[2] = tested on: Cryptococcus neoformans; assay: Antifungal activity against Cryptococcus neoformans ATCC 90113 by broth dilution method
[3] = tested on: Nakaseomyces glabratus; assay: Antifungal activity against Candida glabrata ATCC 90030 by broth dilution method
[4] = tested on: Pichia kudriavzevii; assay: Antifungal activity against Candida krusei ATCC 6258 by broth dilution method
[5] = tested on: Aspergillus fumigatus; assay: Antifungal activity against Aspergillus fumigatus ATCC 90906 by broth dilution method

Compound: C=C1CC[C@@]2(OC1)OC1C[C@H]3[C@@H]4[C@@H](O)C=C5C[C@@H](O)C[C@@H](O[C@@H]6OC[C@H](OS(=O)(=O)O)[C@H](O)[C@H]6O[C@@H]6O[C@@H](C)[C@H](O)[C@@H](O)[C@H]6O)[C@]5(C)[C@H]4CC[C@]3(C)[C@H]1[C@@H]2C (stereo partly specified)
Activity [1]: inactive
Activity [2]: inactive
Activity [3]: inactive
Activity [4]: inactive
Activity [5]: inactive

IC50 [2]: 9.5 µg/mL (≈ 13.7 µM)
Compound: C[C@H]1CC[C@@]2(OC1)OC1C[C@H]3[C@@H]4CC=C5C[C@@H](O)C[C@@H](O[C@@H]6OC[C@H](O)[C@H](O[C@@H]7OC[C@@H](O)[C@H](O)[C@H]7O)[C@H]6O)[C@]5(C)[C@H]4CC[C@]3(C)[C@H]1[C@@H]2C (stereo partly specified) [ANGUDRACANOSIDE F]
Activity [1]: inactive
Activity [3]: inactive
Activity [4]: inactive
Activity [5]: inactive

Compound: C=C1CC[C@@]2(OC1)OC1C[C@H]3[C@@H]4CC=C5C[C@@H](O)C[C@@H](O[C@@H]6OC[C@H](OS(=O)(=O)O)[C@H](O)[C@H]6O[C@@H]6O[C@@H](C)[C@H](O)[C@@H](O)[C@H]6O)[C@]5(C)[C@H]4CC[C@]3(C)[C@H]1[C@@H]2C (stereo partly specified)
Activity [1]: inactive
Activity [2]: inactive
Activity [3]: inactive
Activity [4]: inactive
Activity [5]: inactive

Compound: C[C@H]1CC[C@@]2(OC1)OC1C[C@H]3[C@@H]4C(=O)C=C5C[C@@H](O)C[C@@H](O[C@@H]6OC[C@H](OS(=O)(=O)O)[C@H](O)[C@H]6O[C@@H]6O[C@@H](C)[C@H](O)[C@@H](O)[C@H]6O)[C@]5(C)[C@H]4CC[C@]3(C)[C@H]1[C@@H]2C (stereo partly specified)
Activity [1]: inactive
Activity [2]: inactive
Activity [3]: inactive
Activity [4]: inactive
Activity [5]: inactive

IC50 [2]: 2.5 µg/mL (≈ 2.71 µM)
Compound: C[C@@H]1[C@H](O)[C@@H](C)/C=C/C=C/C=C/C=C/C=C/C=C/C=C/[C@H](O[C@@H]2O[C@H](C)[C@@H](O)[C@H](N)[C@@H]2O)C[C@@H]2O[C@](O)(C[C@@H](O)C[C@@H](O)[C@H](O)CC[C@@H](O)C[C@@H](O)CC(=O)O[C@H]1C)C[C@H](O)[C@H]2C(=O)O [AMPHOTERICIN B]

IC50 [2]: 20 µg/mL (≈ 28.2 µM)
Compound: C[C@H]1CC[C@@]2(OC1)OC1C[C@H]3[C@@H]4CC=C5C[C@@H](O)C[C@@H](O[C@@H]6OC[C@H](O)[C@H](O)[C@H]6O[C@@H]6O[C@@H](C)[C@H](O)[C@@H](O)[C@H]6O)[C@]5(C)[C@H]4CC[C@]3(C)[C@H]1[C@@H]2C (stereo partly specified)
Activity [1]: inactive
Activity [3]: inactive
Activity [4]: inactive
Activity [5]: inactive

Compound: C=C1CO[C@]2(C[C@H]1O)OC1C[C@H]3[C@@H]4CC=C5C[C@@H](O)C[C@@H](O[C@@H]6OC[C@H](OS(=O)(=O)O)[C@H](O)[C@H]6O[C@@H]6O[C@@H](C)[C@H](O)[C@@H](O)[C@H]6O)[C@]5(C)[C@H]4CC[C@]3(C)[C@H]1[C@@H]2C (stereo partly specified)
Activity [1]: inactive
Activity [2]: inactive
Activity [3]: inactive
Activity [4]: inactive
Activity [5]: inactive
